This passage reports IC50 results from US11479546B2, “Antimalarial hexahydropyrimidine analogues” (UCB Biopharma SRL, priority 2018, dated 2022).

The subject of one test is Plasmodium falciparum 3D7. The test can be described thus: P. falciparum 3D7 asexual blood stage assay, Assay Procedure Version 2 (SYBR green readout). The format is cell-based. The note with it: Plasmodium falciparum, 3D7, Erythrocyte, 72 h, Version 2 of the assay procedure (asterisk *); 72 h incubation in infected erythrocytes; 50,000 nM to 15 nM. On the procedure: Asexual Blood Stage Assay
The assay used to measure the effect of test compounds on a bloodstream stage of Plasmodium falciparum 3D7 strain employs SYBR green as the readout. This is a dye that binds to double stranded deoxyribonucleic acid (DNA) with a resulting increase in fluorescence, allowing detection of P. falciparum DNA in infected erythrocytes, and thereby providing a measure of parasite growth and propagation.
P. falciparum Culture Maintenance
Erythrocytes (A+blood) were prepared for both parasite culture and assay by washing 4 times with incomplete media (15.9 g RPMI 1640 (25 mM HEPES, L-glutamine), 1 g NaHCO3, 2 g glucose, 400 μL gentacin (500 mg/mL), 2 mL hypoxanthine solution (13.6 g/L in 0.1M NaOH pH 7.3) in 1 litre of media). The cells were centrifuged at 1800 g for 5 minutes, before decanting the supernatant and re-suspending in fresh incomplete media. On the final wash, the cells were re-suspended in complete media (incomplete media with 5 g/L AlbumaxII), and centrifuged at 1800 g for 3 minutes. This cell sediment was treated as 100% haematocrit.
P. falciparum 3D7 was cultured in erythrocytes at 5% haematocrit in complete media at 37° C. (1% O2, 3% CO2, balance N2). Cultures were split on a weekly basis to achieve a 1% parasitaemia in erythrocites at 5% haematocrit in fresh media. Culture media is replaced by fresh media every other day (2 times during the week).
[formula] where A=% inhibition at bottom; B=% inhibition at top; C=EC50; D=slope; x=inhibitor concentration; and y=% inhibition. […] Assay Procedure—Version 2
On day 1, test compounds were added to assay plates using Echo dispensing technology ([…] and 20 points titration). 50 nL of each compound dilution was added to 50 μL of culture (5% haematocrit, 0.5% parasitaemia) and incubated for 72 h at 37° C. (1% O2, 3% CO2, balance N2). Final concentrations of test compounds ranged from 50,000 nM to 15 nM, in […].
On day 4, 10 μL SYBR green (Invitrogen S7563 supplied as 10,000× concentrate in DMSO) pre-diluted to 3× concentrate with Lysis buffer (20 mM Tris pH 7.9, 5% EDTA, 0.16% w/v, 1.6% TX100 v/v) was added to the cultures and incubated in the dark, overnight, at room temperature.
On day 5, fluorescent signal was measured using a BioTek plate reader (excitation 485 nm, emission 528 nm). All data were processed using IDBS ActivityBase. Raw data were converted into percent inhibition through linear regression by setting the high inhibition control (mefloquine) as 100% and the no inhibition control (DMSO) as 0%. Quality control criteria for passing plates were as follows: Z′>0.5, S:B>3, % CV(no inhibition control)<15. The formula used to calculate Z′ is:
[formula] where μ denotes the mean; σ denotes the standard deviation; p denotes the positive control; and n denotes the negative control.
All EC50 curve fitting was undertaken using the following bi-phasic two site dose response using XLfit model 300 (IDBS):
[formula] where A=100 minus the top of the upper curve 1 and the bottom of lower curve; B=Hill slope; log(C)=IC50 concentration at lower site; log(D)=IC50 concentration at upper site; x=inhibitor concentration; and y=% inhibition.
The compound `C[C@@]1(c2cccc(Nc3ccc(OC(F)F)nc3)c2Cl)CC(=O)N([C@@H]2C[C@H]3CC[C@@H](C2)O3)C(=N)N1` (mixture of isomers) [Example 156, (6S)-6-(2-Chloro-3-{[6-(difluoromethoxy)pyridin-3-yl]-amino}phenyl)-2-imino-6-methyl-3-[(1SR,5RS)-8-oxa-bicyclo[3.2.1]octan-3-yl]-hexahydropyrimidin-4-one] registered an IC50 of 2980 nM. The same measure, in the same setting: under `Cc1ccc(Nc2cccc([C@]3(C)CC(=O)N([C@@H]4C[C@H]5CC[C@@H](C4)O5)C(=N)N3)c2Cl)cn1` (mixture of isomers) [Example 157, (6S)-6-{2-Chloro-3-[(6-methyl-pyridin-3-yl)amino]phenyl}-2-imino-6-methyl-3-[(1SR,5RS)-8-oxabicyclo[3.2.1]octan-3-yl]-hexahydropyrimidin-4-one] stands 3860 nM; under `C[C@@H]1C[C@H](N2C(=N)N[C@](C)(c3cccc(Nc4ccc(Cl)cc4)c3Cl)CC2=O)CCO1` (relative stereo) [Example 155, (6S)-6-[2-Chloro-3-(4-chloro-anilino)phenyl]-2-imino-6-methyl-3-[(2R*,4R*)-2-methyl-tetrahydropyran-4-yl]-hexahydropyrimidin-4-one], 71 nM; under `C[C@@H]1C[C@H](N2C(=N)N[C@](C)(c3cccc(Nc4ccc(C5CC5)nc4)c3Cl)CC2=O)CCO1` (relative stereo) [Example 198, (6S)-6-{2-Chloro-3-[(6-cyclo-propylpyridin-3-yl)amino]-phenyl}-2-imino-6-methyl-3-[(2R*,4R*)-2-methyltetrahydro-pyran-4-yl]hexahydropyrimidin-4-one], 22 nM. Still for that read-out and setting: under `C[C@H]1C[C@@H](N2C(=N)N[C@](C)(c3cccc(Nc4ccc(C5CC5)nc4)c3Cl)CC2=O)CCO1` (relative stereo) [Example 199, (6S)-6-{2-Chloro-3-[(6-cyclo-propylpyridin-3-yl)amino]-phenyl}-2-imino-6-methyl-3-[(2S*,4S*)-2-methyltetrahydro-pyran-4-yl]hexahydropyrimidin-4-one] stands 309 nM; under `C[C@@H]1C[C@H](N2C(=N)N[C@](C)(c3cccc(Nc4ccc(C5CC5)nn4)c3Cl)CC2=O)CCO1` (relative stereo) [Example 200, (6S)-6-{2-Chloro-3-[(6-cyclo-propylpyridazin-3-yl)amino]-phenyl}-2-imino-6-methyl-3-[(2R*,4R*)-2-methyltetrahydro-pyran-4-yl]hexahydropyrimidin-4-one], 45 nM. The same measure, in the same setting: under `C[C@@H]1C[C@H](N2C(=N)N[C@](C)(c3cccc(Nc4ccc(OCC(F)(F)F)nc4)c3Cl)CC2=O)CCO1` (relative stereo) [Example 201, (6S)-6-(2-Chloro-3-{[6-(2,2,2-trifluoroethoxy)pyridin-3-yl]-amino}phenyl)-2-imino-6-methyl-3-[(2R*,4R*)-2-methyl-tetrahydropyran-4-yl]-hexahydropyrimidin-4-one] stands 102 nM.

As to `C[C@@H]1C[C@H](N2C(=N)N[C@](C)(c3cccc(Nc4ccc(OCC(F)(F)F)nn4)c3Cl)CC2=O)CCO1` (relative stereo) [Example 202, (6S)-6-(2-Chloro-3-{[6-(2,2,2-trifluoroethoxy)pyridazin-3-yl]-amino}phenyl)-2-imino-6-methyl-3-[(2R*,4R*)-2-methyl-tetrahydropyran-4-yl]-hexahydropyrimidin-4-one], the half-inhibitory concentration (IC50) was found to be 112 nM.

In turn, `C[C@@H]1C[C@H](N2C(=N)N[C@](C)(c3cccc(Nc4ccc(OCC(F)F)nc4)c3Cl)CC2=O)CCO1` (relative stereo) [Example 203, (6S)-6-(2-Chloro-3-{[6-(2,2-difluoroethoxy)pyridin-3-yl]-amino}phenyl)-2-imino-6-methyl-3-[(2R*,4R*)-2-methyl-tetrahydropyran-4-yl]-hexahydropyrimidin-4-one] showed an IC50 of 57 nM.

As to `Cc1ccc(Nc2cccc([C@]3(C)CC(=O)N([C@@H]4CCO[C@H](C)C4)C(=N)N3)c2Cl)cn1` (single isomer, unassigned) [Example 135], the midpoint of inhibition, the IC50, lay at 21 nM.

`Cc1ccc(Nc2cccc([C@]3(C)CC(=O)N([C@H]4CCO[C@@H](C)C4)C(=N)N3)c2Cl)cn1` (single isomer, unassigned) [Example 136] showed a concentration for half-maximal inhibition (IC50) of 249 nM. Same read-out and setting: under `CC1(C)CC(N2C(=N)N[C@](C)(c3cccc(Nc4ccc(C(C)(C)C)nc4)c3Cl)CC2=O)CCO1` (single isomer, unassigned) [Example 148, (6S)-6-{3-[(6-tert-Butylpyridin-3-yl)amino]-2-chlorophenyl}-3-[(4S*)-2,2-dimethyltetrahydro-pyran-4-yl]-2-imino-6-methyl-hexahydropyrimidin-4-one] stands 368 nM; under `CC1(C)CC(N2C(=N)N[C@](C)(c3cccc(Nc4cnc(C(C)(C)C)cn4)c3Cl)CC2=O)CCO1` (single isomer, unassigned) [Example 149, (6S)-6-{3-[(5-tert-Butylpyrazin-2-yl)amino]-2-chlorophenyl}-3-[(4S*)-2,2-dimethyltetrahydro-pyran-4-yl]-2-imino-6-methyl-hexahydropyrimidin-4-one], 1380 nM; under `CC1(C)CC(N2C(=N)N[C@](C)(c3cccc(Nc4ccc(C5CC5)nn4)c3Cl)CC2=O)CCO1` (single isomer, unassigned) [Example 150, (6S)-6-{2-Chloro-3-[(6-cyclo-propylpyridazin-3-yl)amino]-phenyl}-3-[(4S*)-2,2-dimethyl-tetrahydropyran-4-yl]-2-imino-6-methylhexahydropyrimidin-4-one], 622 nM.

Staying with this test, now noted: Version 2 of the assay procedure (asterisk *); 72 h incubation in infected erythrocytes; 50,000 nM to 15 nM.
In the case of `CC1(C)CC(N2C(=N)N[C@](C)(c3cccc(Nc4ccc(OC(F)F)nc4)c3Cl)CC2=O)CCO1` (single isomer, unassigned) [Example 143, (6S)-6-(2-Chloro-3-{[6-(difluoromethoxy)pyridin-3-yl]-amino}phenyl)-3-[(4R*)-2,2-dimethyltetrahydropyran-4-yl]-2-imino-6-methylhexahydro-pyrimidin-4-one], the 50% inhibitory concentration (IC50) stood at 996 nM.

For `CC1(C)CC(N2C(=N)N[C@](C)(c3cccc(Nc4ccc(OC(F)F)nc4)c3Cl)CC2=O)CCO1` (single isomer, unassigned) [Example 144, (6S)-6-(2-Chloro-3-{[6-(difluoromethoxy)pyridin-3-yl]-amino}phenyl)-3-[(4S*)-2,2-dimethyltetrahydropyran-4-yl]-2-imino-6-methylhexahydro-pyrimidin-4-one], the half-maximal inhibitory concentration (IC50) amounted to 493 nM. The compound `Cc1ccc(Nc2cccc([C@]3(C)CC(=O)N(C4CCOC(C)(C)C4)C(=N)N3)c2Cl)cn1` (single isomer, unassigned) [Example 145, (6S)-6-{2-Chloro-3-[(6-methyl-pyridin-3-yl)amino]phenyl}-3-[(4R*)-2,2-dimethyltetrahydro-pyran-4-yl]-2-imino-6-methyl-hexahydropyrimidin-4-one] had a concentration for half-maximal inhibition (IC50) of 1260 nM. Still for that read-out and setting: the figure for `Cc1ccc(Nc2cccc([C@]3(C)CC(=O)N(C4CCOC(C)(C)C4)C(=N)N3)c2Cl)cn1` (single isomer, unassigned) [Example 146, (6S)-6-{2-Chloro-3-[(6-methyl-pyridin-3-yl)amino]phenyl}-3-[(4S*)-2,2-dimethyltetrahydro-pyran-4-yl]-2-imino-6-methyl-hexahydropyrimidin-4-one] is 425 nM. Same read-out and setting: under `CC1(C)CC(N2C(=N)N[C@](C)(c3cccc(Nc4ccc(C5CC5)nc4)c3Cl)CC2=O)CCO1` (single isomer, unassigned) [Example 147, (6S)-6-{2-Chloro-3-[(6-cyclo-propylpyridin-3-yl)amino]-phenyl}-3-[(4S*)-2,2-dimethyl-tetrahydropyran-4-yl]-2-imino-6-methylhexahydropyrimidin-4-one] stands 287 nM.
